From US20190150447A1, “CONDENSED HETEROCYCLIC COMPOUND” (Sumitomo Chemical Company, Limited, priority 2015, published 2019) come the findings set out here.

What all share (type): in vivo
Assay [1] deals with cotton aphid (Aphis gossypii). Briefly: Test Example 1: foliar spray on cucumber seedling against cotton aphid. Conditions: 500 ppm; spray 10 mL/seedling on cucumber; all stages of life; after 5 days. The protocol:
The test compounds is made to a formulation according to the method described in the Formulation Example 5, and thereto is added water containing 0.03 v/v % of a spreader to prepare a diluted solution containing a prescribed concentration of the test compound. Cucumber (Cucumis sativus) seedling (on the developmental stage of the second true leaf) is planted in a plastic cup, and approximately 30 heads of cotton aphid (Aphis gossypii) (all stages of life) are released onto the leaves of the cucumber. After 1 day, the diluted solutions were sprayed into the seedling in a ratio of 10 mL/seedling. After 5 days, the number of the surviving insects is examined and the controlling value is calculated by the following equation. Controlling value (%)={1−(Cb×Tai)/(Cai×Tb)}×100 wherein the symbols in the equation represent the following descriptions. Cb: Number of the test insects in untreated group; Cai: Number of the surviving insects at the time of the investigation in untreated group; Tb: Number of the test insects in treated group; Tai: Number of the surviving insects at the time of the investigation in treated group; Here the “untreated group” represents a group where the similar treatment procedure to that of the treated group except not using the test compound is done.

In assay [2] the test system is brown planthopper (Nilaparvata lugens). Briefly: Test Example 2: foliar spray on rice seedling against brown planthopper. To be noted: 144 h, spray 10 mL/seedling on rice, 3rd instar larvae, after 6 days, read-out: mortality of insects. The protocol: (§1) The test compound is made to a formulation according to the method described in the Formulation Example 5, and thereto is added water containing 0.03 v/v % of a spreader to prepare a diluted solution containing a prescribed concentration of the test compound.
Rice (Oryza sativa) seedling (on the developmental stage of the second true leaf) is planted in a plastic cup, and the diluted solutions are sprayed into the seedling in a ratio of 10 mL/seedling. Thereafter, 20 heads of 3rd instar larvae of brown planthopper (Nilaparvata lugens) are released onto the rice leaves. After 6 days, the morality is calculated by the following equation.
Morality (%)={1−the number of the surviving insects/20}×100

Assay [3] deals with cabbage moth (Plutella xylostella). Briefly: Test Example 3: foliar spray on cabbage seedling against cabbage moth. To be noted: 120 h, spray 20 mL/seedling on cabbage, second instar larvae, after 5 days, read-out: mortality of insects. The protocol:
as §1
The diluted solutions are sprayed into the cabbage (Brassicae oleracea) seedling (on the developmental stage of the second to third true leaf) that is planted in a container in a ratio of 20 mL/seedling. Thereafter, the stem and leaf thereof is cut out and then is installed into the container that is covered with the filter paper. Five (5) heads of cabbage moth (Plutella xylostella) at the second instar larval stages are released into the cup. After 5 days, the surviving insects are counted, and the mortality of insects is calculated by the following equation.
Morality (%)={1−the number of the surviving insects/5}×100

Assay [4] relates to housefly (Musca domestica). Briefly: Test Example 4: filter paper/sucrose bait test against housefly. Conditions: 0.7 mL on filter paper, female adult, after 24 hours, read-out: mortality of insects. The protocol: (§2) The test compound is made to a formulation according to the method described in the Formulation Example 5, and thereto is added water to prepare a diluted solution containing a prescribed concentration of the test compound.
The bottom of the plastic cup having 5.5 cm diameter is matted with the same size of a filter paper, and 0.7 mL of the diluted solution is added dropwise to the filter paper, and 30 mg sucrose as bait is placed in the cup uniformly. Ten (10) heads of female adult housefly (Musca domestica) are released into the plastic cup, and the cup is covered with the lid. After 24 hours, the life and death of housefly is examined and the mortality of insects is determined. The mortality of insects is calculated by the following equation.
(§3) Mortality of insects (%)=(Number of dead insects/Number of test insects)×100

Assay [5] has as its system German cockroach (Blattella germanica). Briefly: Test Example 5: filter paper/sucrose bait test against German cockroach. Conditions: 144 h, 0.7 mL on filter paper, male, after 6 days, read-out: mortality of insects. The protocol: as §2
The bottom of the plastic cup having 5.5 cm diameter is matted with the same size of a filter paper, and 0.7 mL of the diluted solution is added dropwise to the filter paper, and 30 mg sucrose as bait is placed in the cup uniformly. Two (2) heads of male German cockroach (Blattella germanica) are released into the plastic cup, and the cup is covered with the lid. After 6 days, the life and death of German cockroach is examined and the number of died insects is counted, and the mortality of insects is calculated by the following equation.
as §3

Assay [6] deals with common house mosquito (Culex pipiens pallens). Briefly: Test Example 6: larvae released into diluted solution, common house mosquito. To be noted: 24 h, last instar larvae in diluted solution, after 1 day, read-out: mortality of insects. The protocol:
as §2
Thirty (30) heads of last instar larvae of common house mosquito (Culex pipiens pallens) are released into the diluted solutions and after 1 day, the life and dead of common house mosquito is examined, and the mortality of insects is calculated by the following equation.
Mortality of insects (%)=((Number of dead insects/Numboer of test insects)×100

`CCS(=O)(=O)c1ccc(-n2cncn2)nc1-c1nc2cc(C(F)(F)F)ncc2n1C` [Present compound 1] gave a controlling value in assay [1] of 100%. Besides, the mortality at 500 ppm in assay [2], in assay [3], in assay [4] and in assay [5] was 100% each time. For the same compound, the mortality at 3.5 ppm in assay [6] is 91%.

As a reminder, the mortality is the percentage killed.
